Laboratory results taken from US20170058314A1, “NOVEL METHODOLOGY FOR IDENTIFYING ANTI-PERSISTER ACTIVITY AND ANTIMICROBIAL SUSCEPTIBILITY FOR BORRELIA BURGDORFERI AND OTHER BACTERIA” (priority 2014, published 2017).
Counter-ions that a name gives are not always drawn.

How the values were obtained:
[1] = test system: round body form of B. burgdorferi; assay: SYBR Green I/PI assay on amoxicillin-induced round body form; conditions: for viability at 50 µM: Borreliella burgdorferi, 168 h, read-out: Residual viable cells (SYBR Green I/PI assay)
[2] = test system: stationary phase B. burgdorferi persisters (strain B31); assay: SYBR Green I/PI viability assay (plate reader), FDA-approved drug library screen; conditions: for Ratio of Green/Red fluorescence, Primary screening / Ratio of Green/Red fluorescence, Rescreening (first column) / Ratio of Green/Red fluorescence, Rescreening (second column) / Residual viable cells (regression equation, SYBR Green I/PI assay): 50 μM; for Ratio of Green/Red fluorescence, Primary screening / Ratio of Green/Red fluorescence, Rescreening (first column) / Ratio of Green/Red fluorescence, Rescreening (second column): 7 days, stationary phase; for viability at 50 µM: Borreliella burgdorferi, 168 h, read-out: Residual viable cells (regression equation, SYBR Green I/PI assay); for Residual viable cells (regression equation, SYBR Green I/PI assay): 7-day old stationary phase cells treated for 7 days

| Compound | viability at 50 µM [1] | Ratios of green/red fluorescence, Primary screening ([1]; round body form, 50 μM, 7 days) | Ratios of green/red fluorescence, Rescreening (first column) ([1]; round body form, 50 μM, 7 days) | Ratios of green/red fluorescence, Rescreening (second column) ([1]; round body form, 50 μM, 7 days) | Ratio of Green/Red fluorescence, Primary screening [2] | Ratio of Green/Red fluorescence, Rescreening (first column) [2] | Ratio of Green/Red fluorescence, Rescreening (second column) [2] | viability at 50 µM [2] | further results |
| --- | --- | --- | --- | --- | --- | --- | --- | --- | --- |
| C[C@H]1COc2c(N3CCN(C)CC3)c(F)cc3c(=O)c(C(=O)O)cn1c23 [levofloxacin] | 41% | – | – | – | – | – | – | – | – |
| CC(C)(O/N=C(\C(=O)N[C@@H]1C(=O)N2C(C(=O)[O-])=C(C[n+]3ccccc3)CS[C@H]12)c1csc(N)n1)C(=O)O [Ceftazidime] | 34% | 6.20 | 6.34 | 6.37 | – | – | – | – | – |
| Cn1nnnc1SCC1=C(C(=O)O)N2C(=O)[C@@H](NC(=O)[C@H](O)c3ccccc3)[C@H]2SC1 [Cefamandole] | – | – | – | – | 6.71 | 7.73 | 6.52 | 50% | – |
| CO/N=C(\C(=O)N[C@@H]1C(=O)N2C(C(=O)O)=CCS[C@H]12)c1csc(N)n1 [Ceftizoxime] | – | – | – | – | 6.94 | 6.83 | 7.03 | 49% | – |
| CO/N=C(\C(=O)N[C@@H]1C(=O)N2C(C(=O)[O-])=C(C[N+]3(C)CCCC3)CS[C@H]12)c1csc(N)n1 [Cefepime] | – | – | – | – | 6.67 | 7.16 | 6.45 | 44% | – |
| Nc1ccc(S(=O)(=O)O)cc1 [Sulfanilate] | – | 6.49 | 6.03 | 6.40 | – | – | – | – | Residual viable cells (SYBR Green I/PI assay) ([1]; round body form, 50 μM, 7 days): 34% |
| C[C@@H]1O[C@@H]1P(=O)(O)O [Fosfomycin] | 31% | 6.39 | 6.12 | 6.16 | – | – | – | – | – |
| CN(C)[C@@H]1C(O)=C(C(=O)NCN2CCCC2)C(=O)[C@@]2(O)C(O)=C3C(=O)c4c(O)cccc4[C@@](C)(O)[C@H]3C[C@@H]12 [Rolitetracycline] | 35% | 6.23 | 6.35 | 6.37 | – | – | – | – | – |
| CCS(=O)(=O)CCn1c([N+](=O)[O-])cnc1C [Tinidazole] | 33% | 6.24 | 6.21 | 6.36 | – | – | – | – | – |
| NCc1ccccc1CC(=O)N[C@@H]1C(=O)N2C(C(=O)O)=C(CSc3nnnn3CC(=O)O)CS[C@H]12 [Ceforanide] | – | – | – | – | 6.89 | 7.49 | 6.33 | 48% | – |
| CN(C)[C@@H]1C(O)=C(C(N)=O)C(=O)[C@@]2(O)C(O)=C3C(=O)c4c(O)ccc(Cl)c4[C@@](C)(O)[C@H]3C[C@@H]12 [Chlortetracycline] | 31% | 6.20 | 6.36 | 6.18 | – | – | – | – | – |
| O=[N+]([O-])c1ccc(/C=N/O)o1 [Nifuroxime] | 30% | 6.10 | 6.32 | 6.22 | – | – | – | – | – |
| CCN(CC)Cc1cc(Nc2ccnc3cc(Cl)ccc23)ccc1O [Amodiaquin] | – | – | – | – | 6.79 | 6.44 | 6.85 | 45% | – |
| Nc1ccc(S(=O)(=O)Nc2nccs2)cc1 [Sulfathiazole] | 31% | 6.38 | 6.18 | 6.17 | – | – | – | – | – |
| CCn1cc(C(=O)O)c(=O)c2cc(F)c(N3CCNCC3)cc21 [norfloxacin] | 41% | – | – | – | – | – | – | – | – |
| CC1(C)S[C@@H]2[C@H](NC(=O)[C@H](C(=O)O)c3ccsc3)C(=O)N2[C@H]1C(=O)O [Ticarcillin] | – | – | – | – | 6.82 | 6.72 | 6.93 | 46% | – |
| C[C@H]1[C@H](NC(=O)/C(=N\OC(C)(C)C(=O)O)c2csc(N)n2)C(=O)N1S(=O)(=O)O [Aztreonam] | 34% | 6.16 | 6.38 | 6.33 | – | – | – | – | – |
| C=CC1=C(C(=O)O)N2C(=O)[C@@H](NC(=O)/C(=N\O)c3csc(N)n3)[C@H]2SC1 [Cefdinir] | – | – | – | – | 6.88 | 7.51 | 6.29 | 48% | – |
| C=C[C@H]1C[N@@]2CC[C@H]1C[C@H]2[C@H](O)c1ccnc2ccc(OC)cc12 [Quinine hydrobromide] | – | – | – | – | 7.00 | 6.85 | 6.88 | 50% | – |
| COc1cnc(NS(=O)(=O)c2ccc(N)cc2)nc1 [Sulfameter] | – | – | – | – | 7.13 | 7.46 | 6.98 | 54% | activity against stationary phase B. burgdorferi (words; SYBR Green I/PI assay) ([2]; FDA drug screen): effective |
| C=CC1=C(C(=O)O)N2C(=O)[C@@H](NC(=O)/C(=N\OCC(=O)O)c3csc(N)n3)[C@H]2SC1 [Cefixime] | 34% | 6.41 | 6.21 | 6.27 | – | – | – | – | – |
| C=C1c2c(Cl)ccc(O)c2C(=O)C2=C(O)[C@]3(O)C(=O)C(C(N)=O)=C(O)[C@@H](N(C)C)[C@@H]3[C@@H](O)[C@H]12 [Meclocycline] | 33% | 6.52 | 6.23 | 6.09 | – | – | – | – | – |
| O=C(O)C1=C(CSc2nnnn2CS(=O)(=O)O)CS[C@@H]2[C@H](NC(=O)[C@H](O)c3ccccc3)C(=O)N12 [Cefonicid] | – | – | – | – | 6.86 | 7.54 | 6.07 | 46% | – |
| CN[C@@H]1[C@@H](O)[C@@H](O[C@@H]2[C@@H](O)[C@H](O[C@H]3OC(CN)=CC[C@H]3N)[C@@H](N)C[C@H]2N)OC[C@]1(C)O [Sisomicin] | 33% | 6.27 | 6.12 | 6.45 | – | – | – | – | – |
| Collistin | – | – | – | – | 7.15 | 7.26 | 7.23 | – | – |
| [Bi] [Bismuth] | – | – | – | – | 6.94 | 6.82 | 6.92 | – | Residual viable cells (regression equation, SYBR Green I/PI assay) [2]: 48% |
| COc1c(N2C[C@@H]3CCCN[C@@H]3C2)c(F)cc2c(=O)c(C(=O)O)cn(C3CC3)c12 [moxifloxacin] | 49% | – | – | – | – | – | – | – | – |
| C[C@@H]1[C@H](O)[C@@H](C)/C=C/C=C/C=C/C=C/C=C/C=C/C=C/[C@H](O[C@@H]2O[C@H](C)[C@@H](O)[C@H](N)[C@@H]2O)C[C@@H]2O[C@](O)(C[C@@H](O)C[C@@H](O)[C@H](O)CC[C@@H](O)C[C@@H](O)CC(=O)O[C@H]1C)C[C@H](O)[C@H]2C(=O)O [Amphotericin B] | – | – | – | – | 7.14 | 6.88 | 6.87 | – | Residual viable cells (regression equation, SYBR Green I/PI assay) [2]: 50% |
| CC(=O)NS(=O)(=O)c1ccc(N)cc1 [Sulfacetamide] | 29% | 6.26 | 6.14 | 6.20 | – | – | – | – | – |
| Cc1nnc(SCC2=C(C(=O)O)N3C(=O)[C@@H](NC(=O)Cn4cnnn4)[C@H]3SC2)s1 [Cefazolin] | 34% | 6.23 | 6.34 | 6.29 | – | – | – | – | – |
